{"source": "patent US20210379062A1", "about": "“The use of a H3R inverse agonist for the treatment of excessive daytime sleepiness associated with parkinson's disease (PD)” (Novartis AG, priority 2018, published 2021)", "key": {"[1]": {"target": "H3 receptors in the brain (Homo sapiens, UniProt Q9Y5N1)", "sequence (Q9Y5N1 whole entry)": "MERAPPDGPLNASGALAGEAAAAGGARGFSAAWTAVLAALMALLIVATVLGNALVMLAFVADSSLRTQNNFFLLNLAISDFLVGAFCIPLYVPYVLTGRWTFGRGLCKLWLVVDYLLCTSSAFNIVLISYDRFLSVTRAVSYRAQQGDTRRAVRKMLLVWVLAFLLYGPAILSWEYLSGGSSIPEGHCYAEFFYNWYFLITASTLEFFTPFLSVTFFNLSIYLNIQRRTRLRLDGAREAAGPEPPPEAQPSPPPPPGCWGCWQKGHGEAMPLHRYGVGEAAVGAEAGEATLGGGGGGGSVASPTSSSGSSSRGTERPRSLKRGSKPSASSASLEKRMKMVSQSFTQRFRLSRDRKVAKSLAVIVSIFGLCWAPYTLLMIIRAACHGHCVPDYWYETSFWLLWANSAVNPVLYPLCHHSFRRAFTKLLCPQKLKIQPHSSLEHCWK", "test": "PET brain H3 receptor occupancy study with [11C]MK-8278 in healthy volunteers", "assay_type": "in vivo", "method": "An open-label, adaptive design study was performed in healthy volunteers to characterize regional brain H3 receptor occupancy following single dose of Compound (I) by using positron emission tomography (PET) with the radioligand [^11C]MK-8278 (Van Laere, K. J. et al, Journal of Nuclear Medicine, 2014, 55: 65-72). The primary objective of this study was to evaluate the plasma concentration of Compound (I) leading to 50% occupancy of H3 receptors in the brain (EC50). A total of 6 subjects were enrolled into the study and were scanned in three cohorts of two subjects each. Prior to dosing with Compound (I), each subject underwent a baseline PET scan to assess binding of [^11C]MK-8278 to H3R in the absence of Compound (I). Subjects subsequently received single oral doses of Compound (I) and then underwent two post-dose PET scans. Subjects of cohort 1 received a single oral dose of 300 mg of Compound (I), corresponding to the single dose maximum tolerated dose (MTD) determined from the Phase I study after single oral dose of Compound (I). These subjects underwent two post-dose PET scans, at 3 hours and 27 hours after dosing. The doses and scan timings for the subsequent cohorts were selected based on interim data analyses following the completion of the preceding cohort(s). Subjects of cohorts 2 and 3 received a single oral dose of 10 mg and 0.3 mg, respectively. Compound (I) was administered as capsules in cohorts 1 and 2, whereas cohort 3 received Compound (I) as an oral solution. […] The first post-dose PET scan for cohorts 2 and 3 was acquired at 3 hours and the second one at 27 hours and 8 hours after dosing, respectively.\nThe binding was consistent with both the known distribution of H3 receptors and previous [^11C]MK-8278 data (Van Laere, K. J. et al, Journal of Nuclear Medicine, 2014, 55: 65-72). The kinetics of [^11C]MK-8278 in brain were analyzed using different modelling approaches, such as the one- and two-tissue compartment (1TC, 2TC) models, multilinear analysis (MA1; Ichise, M. et al., Journal of Cerebral Blood Flow and Metabolism, 2002, 22: 1271-1281) and the Logan graphical method (Logan, J. et al., Journal of Cerebral Blood Flow and Metabolism, 1990, 10(5): 740-747). All methods produced similar results, but the 2TC model was the most appropriate to derive regional VT values. Tissue time-activity curves (TACs) were generated for all scans and were characterized by a peak at around 5-15 minutes post-injection, followed by washout. After administration of Compound (I), regional binding of [^11C]MK-8278 was reduced compared to baseline scans, indicating engagement of Compound (I) with the target. The occupancy plot method proposed by Lassen (Lassen, N. A. et al., Journal of Cerebral Blood Flow and Metabolism, 1995, 15 (1): 152-165; Cunningham, V. J. et al., Journal of Cerebral Blood Flow and Metabolism, 2010, 30 (1): 46-50) was applied to estimate whole-brain H3 receptor occupancy for each post-dose PET scan. This method also provided consistent estimates of the non-displaceable component (VND).\nThe relationship between plasma concentration of Compound (I) and H3 receptor occupancy was characterized plotting occupancy estimates against corresponding plasma concentration data (measured at the start of each post-dose PET scan). The RO versus concentration was analyzed using the Emax model:\nWhere RO=Receptor occupancy; Emax=maximum receptor occupancy; Cp=plasma concentration of Compound (I) during PET scan; EC50=plasma concentration leading to 50% of maximum change in RO."}, "[2]": {"target": "T1, Human histamine H3 receptor (Homo sapiens, UniProt Q9Y5N1)", "T1 construct": "purchased PerkinElmer", "T1 sequence (Q9Y5N1 whole entry)": "as above", "test": "Radioligand binding assay with [3H]-N-α-methylhistamine", "method": "Human histamine H3 receptor membrane (PerkinElmer) were incubated with 1.0 nM [^3H]—N-α-methylhistamine (PerkinElmer) in the presence or absence of increasing concentrations of ligands for H3 receptor competition binding. The binding incubations were in a final volume of 0.1 ml buffer (50 mMTris pH 7.5, 5 mM MgCl2) at 28° C. for 120 minutes. Thioperamide (10 μM) was used to define non-specific binding.\nAll binding reactions were terminated by transferring 70 μl binding reaction from the reaction plate into filtration plates (Zeba 96-well Spin Desalting Plates, Thermo Scientific), followed by centrifugation at 1000 g for 2 min to collect the protein with bound radioligand. 200 μl of microscint-40 were added to determine the bound radiolabel by a Wallac Microbeta Trilux 2450 (Perkin Elmer). For all radioligand competition binding assays, IC50 values and Hill slopes were determined by GraphPad Prism: log(inhibitor) vs. response with variable slope. Ki was calculated using the equation in Biochem. Pharmacol. 1973. 22 (23), 3099-3108, from Cheng and Prusoff: Ki=IC50/{1+([radioligand]/Kd)}."}, "Rat brain and plasma PK": {"test": "Rat brain and plasma PK", "assay_type": "in vivo", "conditions": "10 mg/kg oral, rats"}}, "note": "Values joined by “and” are separate entries in the source; they are usually repeats but may differ in a detail not shown here. Identical values can stand only once."}
{"smiles": "Cn1nc(N2CCC(OC(=O)N3CCN(C4CCC4)CC3)CC2)ccc1=O", "note": "[Compound (I), 1-(1-methyl-6-oxo-1,6-dihydropyridazin-3-yl)piperidin-4-yl 4-cyclobutylpiperazine-1-carboxylate]", "values": [{"measurement": "Emax (maximum receptor occupancy)", "setting": "[1]; Emax model of PK-RO relationship", "result": "96.1% and 96.16%"}, {"measurement": "Receptor occupancy (RO)", "setting": "[1]; first cohort, single oral dose 300 mg, 3 hours post-dose, both subjects", "result": "higher than 95%"}, {"measurement": "Receptor occupancy (RO)", "setting": "[1]; first cohort, single oral dose 300 mg, 27 hours post-dose, both subjects", "result": "higher than 95%"}, {"measurement": "EC50", "setting": "[1]; read-out: EC50 (plasma concentration leading to 50% occupancy of H3 receptors), Emax model of PK-RO relationship, plasma concentration", "result": 0.772, "unit": "nM"}, {"measurement": "Receptor occupancy (RO)", "setting": "[1]; second cohort, single oral dose 10 mg, 3 hours post dose", "result": "similarly high"}, {"measurement": "Receptor occupancy (RO)", "setting": "[1]; second cohort, single oral dose 10 mg, 27 hours post dose", "result": "decreased"}, {"measurement": "Receptor occupancy (RO)", "setting": "[1]; third cohort, single oral dose 0.3 mg, 3 h and 8 h post dose", "result": "generally lower than in the other cohorts"}, {"measurement": "affinity fold higher compared to bavisant", "setting": "[2]; human H3 receptors", "result": 12, "unit": "fold"}, {"measurement": "affinity fold higher compared to pitolisant", "setting": "[2]; human H3 receptors", "result": 18, "unit": "fold"}, {"measurement": "Ki", "setting": "[2]; human recombinant H3R, 1.0 nM [3H]-N-α-methylhistamine, Cheng-Prusoff", "result": 8.5, "unit": "nM"}, {"measurement": "total brain exposure", "setting": "Rat brain and plasma PK", "result": "intermediate"}, {"measurement": "brain exposure", "setting": "Rat brain and plasma PK; 8 h time point", "result": "close to detection limit"}, {"measurement": "concentration at 4 h", "setting": "Rat brain and plasma PK; male, Sprague-Dawley, rat, brain, 4 h time point, read-out: brain exposure", "result": 21, "unit": "ng/g"}]}
